Marks after values point to notes of the source that are not given here. Square brackets hold non-standard residues; d marks the D form. Peptide text beside a SMILES is read from it. dPhe(4-Cl) = N[C@H](Cc1ccc(Cl)cc1)C(=O)O; d2Nal = N[C@H](Cc1ccc2ccccc2c1)C(=O)O; dCit = NC(=O)NCCC[C@@H](N)C(=O)O; d3Pal = N[C@H](Cc1cccnc1)C(=O)O
What was measured:
[1] = system: pubertal Hereford-cross beef heifers; assay: Two 1.5 mg Cetrorelix injections at pre-selection, growing or late-static phase in beef heifers (Example 4); assay type: in vivo, cattle
Experimental: The study was conducted on pubertal Hereford-cross beef heifers (n=32) at the U. Sask. Livestock and Forage Centre of Excellence (LFCE). Initial transrectal ultrasonography was performed to confirm the puberty by the presence or absence of a corpus luteum (CL). Animals were also weighed at this time. Animals with a functional CL were administered an intramuscular (im) injection of prostaglandin F2a analog (cloprostenol) to cause CL regression and ovulation. Daily ultrasonography was performed to detect ovulation and to record the number, size and location of follicles and CL in both ovaries. The day of emergence of a follicular wave was initially estimated by sudden increase in the number of 3-4 mm follicles and confirmed retrospectively as the day on which the dominant follicle was first detected at 4 to 5 mm in size (defined as Day 0). Follicular and hormonal data (see next section for endpoints) from all animals was collected for one complete inter-ovulatory interval.
Animals were randomized into 4 groups based on the day of ovulation. Group 1 (control group) heifers were given 3 mL normal saline (sham-treated negative control; n=3 on Days 1 and 2, n=3 on Days 3 and 4, n=2 on Days 6 and 7). Group 2 heifers were given 1.5 mg Cetrorelix on Days 1 and 2 (pre-selection dominant follicle phase; n=8), Group 3 heifers were given Cetrorelix on Days 3 and 4 (dominant follicle growing phase; n=8), and Group 4 heifers were given Cetrorelix on Days 6 and 7 (dominant follicle late-static/early regressing phase; n=8). The dose of Cetrorelix (1.5 mg per treatment), route of administration (intramuscular) and duration of treatment (i.e., 2 doses at 24 hr interval) were selected based on Example 2 and previous studies in cattle (Ulker et al, 2001).
Changes in the size of the dominant follicle, largest subordinate follicle and CL, and the number of follicles in 3-5, 6-8, and 9+mm size categories were recorded daily from initial ovulation to the first post-treatment ovulation. The inter-wave interval was determined based on duration between emergence of successive follicular waves.
Blood samples were also collected every 12 hours by jugular venipuncture for measurement of plasma LH concentrations from −36 hr to +72 hr of treatment. Blood samples were collected daily for measurement of plasma progesterone concentrations from 1 day before to 7 days after treatment. A Proc Mixed repeated measures analysis of variance (SAS version 9.4) was performed to compare serial data (follicle size, follicle numbers, CL size, plasma LH, plasma progesterone).

[2] = system: pubertal Hereford-cross beef heifers; assay: Cetrorelix in luteal versus preovulatory phase, hCG ovulation challenge in heifers (Example 6); assay type: in vivo, cattle; conditions: high and low progesterone, 3 mg i/m
Experimental: Experimental design: The study was conducted on pubertal Hereford-cross beef heifers (n=24) at the U. Sask. Livestock and Forage Centre of Excellence (LFCE) using a 2×2 factorial design (Table 15). Initial transrectal ultrasonography was performed to confirm post-pubertal or post-partum cyclicity by the presence or absence of a corpus luteum (CL). Animals with a CL were weighed and treated with prostaglandin F2a analog as in Example 4 and monitored by ultrasonography to detect ovulation. Day of ovulation was considered the day of wave emergence (defined as Day 0).
On the day of ovulation, heifers were randomized into 4 groups. Those in the preovulatory groups were given prostaglandin on Days 4 and 4.5 of the wave while those in the luteal groups were allowed to maintain the CL (i.e., no prostaglandin treatment). Treatments was given as outlined in Table 16 and schematic time line FIG. 8. Cetrorelix groups were given 3 mg cetrorelix i/m on Day 5. All animals were treated with hCG (Chorulon, 1500 IU, im) on Day 7 of the wave (i.e., 48 hr after Cetrorelix/saline treatment) to determine the ovulatory potential of the dominant follicle.
Blood samples were taken 24 hr after cetrorelix or no treatment (control groups) for measurement of plasma concentrations of LH and progesterone. Data was analyzed in a similar manner to Example 4.

[3] = system: Brahman x Angus cross beef post-partum cows; assay: Field trial of fixed-time AI after cetrorelix versus estradiol protocol (Example 8); assay type: in vivo, cattle
Experimental: This field trial was conducted by a faculty member of the Federal University of Santa Maria at a client beef farm in Brazil in December 2022. A total of 216 Brahman x Angus cross beef post-partum cows were used for this experiment. Cows were divided into two treatment groups ([…]) and were either given cetrorelix 3 mg i/m or estradiol benzoate on a random day of the cycle (defined as Day 0). An intravaginal progesterone device (CIDR) was placed in all cows on Day 0. The CIDR devices were removed on Day 8 and animals were given prostaglandin F2a analog and equine choriogonadotropin (eCG). Fixed-time artificial insemination was done 54 hrs after CIDR removal and animals were given GnRH at this time. Pregnancy diagnosis was performed on Day 30 after artificial insemination. Transrectal ultrasound examinations were performed on Day 0, Day 8, Day 10 and Day 40.

[4] = after single injection of 0.25 mg in women; cited from earlier work
[5] = 30 days after fixed-time artificial insemination

Compound: CC(=O)N[C@H](Cc1ccc2ccccc2c1)C(=O)N[C@H](Cc1ccc(Cl)cc1)C(=O)N[C@H](Cc1cccnc1)C(=O)N[C@@H](CO)C(=O)N[C@@H](Cc1ccc(O)cc1)C(=O)N[C@H](CCCNC(N)=O)C(=O)N[C@@H](CC(C)C)C(=O)N[C@@H](CCCNC(=N)N)C(=O)N1CCC[C@H]1C(=O)N[C@H](C)C(N)=O [Cetrorelix, N-acetyl-3-(2-naphthyl)-D-alanyl-4-chloro-D-phenylalanyl-3-(3-pyridyl)-D-alanyl-L-seryl-L-tyrosyl-D-citrullyl-L-leucyl-L-arginyl-L-prolyl-D-alaninamide] (Ac-[d2Nal][dPhe(4-Cl)][d3Pal]SY[dCit]LRP[dA]-NH2)
- Days from treatment to next wave emergence ([1]; 1.5 mg i/m on Day 1-2 of wave): 5.9 ± 0.4 days
- Days from treatment to next wave's dominant follicle at 9 mm ([1]; 1.5 mg i/m on Day 1-2 of wave): 9.1 ± 0.8 days
- Interovulatory Interval ([1]; 1.5 mg i/m on Day 1-2 of wave): 21.5 ± 1.4
- Interwave Interval ([1]; 1.5 mg i/m on Day 1-2 of wave): 6.9 ± 0.4^b
- Largest Dominant Follicle Diameter (mm) ([1]; 1.5 mg i/m on Day 1-2 of wave): 10.3 ± 0.6^b mm
- Largest Subordinate Follicle Diameter (mm) ([1]; 1.5 mg i/m on Day 1-2 of wave): 7.1 ± 0.5^b mm
- Number of Follicles at WE ([1]; 1.5 mg i/m on Day 1-2 of wave): 19.3 ± 2.0
- Time to Largest Dominant (days) ([1]; 1.5 mg i/m on Day 1-2 of wave): 6.3 ± 0.9^ab days
- Time to Largest Subordinate ([1]; 1.5 mg i/m on Day 1-2 of wave): 3.1 ± 0.6 days
- Length of Wave 2 ([1]; 1.5 mg i/m on Day 1-2 of wave, in d (unit assumed)): 9.3 ± 0.7
- Days from treatment to next wave emergence ([1]; 1.5 mg i/m on Day 3-4 of wave): 5.8 ± 0.5 days
- Days from treatment to next wave's dominant follicle at 9 mm ([1]; 1.5 mg i/m on Day 3-4 of wave): 9.5 ± 0.5 days
- Interovulatory Interval ([1]; 1.5 mg i/m on Day 3-4 of wave): 20.3 ± 0.4
- Interwave Interval ([1]; 1.5 mg i/m on Day 3-4 of wave): 8.9 ± 0.4^ab
- Largest Dominant Follicle Diameter (mm) ([1]; 1.5 mg i/m on Day 3-4 of wave): 10.6 ± 0.4^b mm
- Largest Subordinate Follicle Diameter (mm) ([1]; 1.5 mg i/m on Day 3-4 of wave): 6.9 ± 0.4^b mm
- Number of Follicles at WE ([1]; 1.5 mg i/m on Day 3-4 of wave): 20.9 ± 2.7 ^
- Time to Largest Dominant (days) ([1]; 1.5 mg i/m on Day 3-4 of wave): 4.6 ± 0.6^b days
- Time to Largest Subordinate (days) ([1]; 1.5 mg i/m on Day 3-4 of wave): 4.0 ± 1.0^ days
- Length of Wave 2 ([1]; 1.5 mg i/m on Day 3-4 of wave, in d (unit assumed)): 9.1 ± 0.8
- Days from treatment to next wave emergence ([1]; 1.5 mg i/m on Day 6-7 of wave): 4.3 ± 0.6 days
- Days from treatment to next wave's dominant follicle at 9 mm ([1]; 1.5 mg i/m on Day 6-7 of wave): 8.3 ± 0.7 days
- Interovulatory Interval ([1]; 1.5 mg i/m on Day 6-7 of wave): 19.6 ± 0.6
- Interwave Interval ([1]; 1.5 mg i/m on Day 6-7 of wave): 10.3 ± 0.6^a
- Largest Dominant Follicle Diameter (mm) ([1]; 1.5 mg i/m on Day 6-7 of wave): 12.9 ± 0.4^a mm
- Largest Subordinate Follicle Diameter (mm) ([1]; 1.5 mg i/m on Day 6-7 of wave): 7.9 ± 0.6^b mm
- Length of Wave 2 ([1]; 1.5 mg i/m on Day 6-7 of wave): 8.3 ± 0.5
- Number of Follicles at WE ([1]; 1.5 mg i/m on Day 6-7 of wave): 15.8 ± 1.1
- Time to Largest Dominant (days) ([1]; 1.5 mg i/m on Day 6-7 of wave): 6.8 ± 0.9^ab days
- Time to Largest Subordinate ([1]; 1.5 mg i/m on Day 6-7 of wave): 3.9 ± 0.5 days
- Wave emergence after the first Cetrorelix treatment irrespective of phase of dominant follicle ([1]; two 1.5 mg (about 3.75 ug/kg) i/m doses 24 hr apart, groups combined): 5.3 ± 0.3 days
- Next wave dominant follicle ready for ovulation ([1]; two 1.5 mg i/m doses): 9 days
- Time for which dominant/pre-ovulatory follicle maintains ovulatory potential after cetrorelix treatment [2]: at least 48 hr
- Conception rate: Percent [3, 5]: 42.6%
- Conception rate: Pregnant/AI [3, 5]: 46/108*
- Conception rate: Percent ([3]; 30 days after fixed-time artificial insemination, listed as cetrorelix): 42.6%
- Size of the dominant follicle on Day 8 (at PGF) ([3]; cetrorelix 3 mg i/m or estradiol benzoate on Day 0, CIDR removal Day 8, in mm): 11.04 ± 0.48
- Size of the dominant follicle on Day 10 (at AI) ([3]; cetrorelix 3 mg i/m or estradiol benzoate on Day 0, in mm): 12.72 ± 0.65
- Elimination half-life [4]: 5 h

Source: patent publication US20260034192A1 (University of Saskatchewan, priority 2022, published 2026)
